The values below come from US5451601A, “Perhydroisoindole derivatives and pharmaceutical compositions containing them” (Rhone-Poulenc Rorer S.A., priority 1991, dated 1995).

Common to all, as to format: in vivo
One assay concerns substance P. Briefly: antagonism of the hypotension induced by substance P, technique of C. A. Maggi et al. As to conditions: rats; product 1 mg/kg i.v./min for 5 min; hypotension induced by i.v. injection of substance P. From the text:
Injection of substance P into animals produces hypotension. The products studied in the technique of C. A. Maggi et al., J. Auton.

A short description of assay [1]: analgesic activity, technique of Siegmund E. et al. To be noted: po. From the text: Exp. Biol. Med., 95, 729 (1957).
The subject of assay [2] is septide (agonist of substance P). Briefly: inhibition of the increase in capillary permeability brought about by septide, technique of A. Saria et al. adapted to mice. As to conditions: Mus musculus, sc, septide-induced increase in capillary permeability. From the text:
The study of a number of isoindole derivatives of general formula (I) according to the technique of A. Saria et al., Arch.

SMILES strings stand for the structures.

As usually defined, the ED50 is the dose that gives a 50% effect, or the effect in half of the subjects. Low readings indicate greater potency, high ones weaker potency. As for `O=C(Cc1ccccc1OCCCN1CCCC1)N1C[C@@H]2[C@H](F)CCC(c3ccccc3)(c3ccccc3)[C@@H]2C1` [Example 2], the “% inhibition of hypotension” value in the assay on substance P is 68%. Moreover, the ED50 turned out to be 2 mg/kg in assay [1] and 0.3 mg/kg in assay [2].

As for `COc1ccccc1[C@H](C)C(=O)N1C[C@@H]2[C@H](F)CCC(c3ccccc3)(c3ccccc3)[C@@H]2C1` [Example 7, (3aR,7R,7aR)-4,4-diphenyl-7-fluoro-2-[(S)-2-(2-methoxyphenyl)propionyl]perhydroisoindole], the ED50 in assay [1] came to 1.5 mg/kg; in assay [2], 0.32 mg/kg.

In the case of `CN(C)CCCOc1ccccc1CC(=O)N1C[C@@H]2[C@H](F)CCC(c3ccccc3)(c3ccccc3)[C@@H]2C1.Cl` [Example 1, (3aR,7R,7aR)-2-{[2-(3-dimethylaminopropoxy)phenyl]acetyl}-4,4-diphenyl-7-fluoroperhydroisoindole hydrochloride], the “% inhibition of hypotension” value in the assay with substance P was determined as 73%. For the same compound, the ED50 turned out to be 3 mg/kg in assay [1] and 0.7 mg/kg in assay [2].
